Measurements: patent publication US20090240027A1, “INTERMEDIATES FOR MACROCYCLIC COMPOUNDS” (Tranzyme Pharma Inc., priority 2003, published 2009)

Molecular target: human motilin receptor (Homo sapiens, UniProt O43193)
Experiment: Competitive radioligand binding assay (Method B1)
Set-up: purchased PerkinElmer 6110544; host or cells: CHO cells, stably transfected (membranes)
Conditions: Radioligand competitive binding assay, Method B1; values reported as ranges; read-out: Ki (binding activity)
Protocol: Competitive Radioligand Binding Assay (Motilin Receptor)
• Membranes were prepared from CHO cells stably transfected with the human motilin receptor and utilized at a quantity of 1.5 μg/assay point.
Final Test Concentrations (N=11) for Compounds:
Compounds were provided frozen on dry ice at a stock concentration of 10 mM diluted in 100% DMSO and stored at −20° C. until the day of testing. On the test day, compounds were allowed to thaw at room temperature and than diluted in assay buffer according to the desired test concentrations. Under these conditions, the maximum final DMSO concentration in the assay was 0.5%.
Plates are sealed with TopSeal-A, vortexed gently and incubated at room temperature for 2 hours. The reaction is arrested by filtering samples through pre-soaked (0.3% polyethyleneimine, 2 h) Multiscreen Harvest plates using a Tomtec® Harvester (Tomtec, Hamden, Conn.)), washed 9 times with 500 μL of cold 50 mM Tris-HCl (pH 7.4), and than plates are air-dried in a fumehood for 30 minutes. A bottom seal is applied to the plates prior to the addition of 25 μL of MicroScint-0™ to each well.
Data are analyzed by GraphPad™ Prism (GraphPad Software, San Diego, Calif.) using a variable slope non-linear regression analysis.
where total and non-specific binding represent the cpm obtained in the absence or presence of 1 μM motilin, respectively.

Chain of human motilin receptor (O43193 whole entry): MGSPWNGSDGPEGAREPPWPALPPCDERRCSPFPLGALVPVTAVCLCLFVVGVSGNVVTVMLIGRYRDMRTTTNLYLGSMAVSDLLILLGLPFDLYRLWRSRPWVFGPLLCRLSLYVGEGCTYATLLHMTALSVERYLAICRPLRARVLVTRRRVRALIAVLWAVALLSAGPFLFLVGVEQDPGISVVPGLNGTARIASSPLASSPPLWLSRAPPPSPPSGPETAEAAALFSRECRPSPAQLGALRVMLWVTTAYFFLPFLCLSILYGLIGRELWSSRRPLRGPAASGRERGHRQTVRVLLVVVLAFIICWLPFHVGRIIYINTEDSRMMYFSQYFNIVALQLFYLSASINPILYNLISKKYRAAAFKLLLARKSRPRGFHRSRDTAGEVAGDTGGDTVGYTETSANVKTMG

Ki, 1 to 10 µM:
CC1NC(=O)C(C(C)C)NC(=O)C(Cc2ccc(O)cc2)NCCOc2ccccc2C=CCNC1=O (stereo not drawn) [Compound 38]
CC(C)C1NC(=O)C(Cc2ccc(O)cc2)NCCOc2ccccc2C=CCNC(=O)CNC1=O (stereo not drawn) [Compound 40]
CCCC1NC(=O)C(Cc2ccccc2)NC(=O)C(Cc2ccc(O)cc2)NCCOc2ccccc2C=CCNC1=O (stereo not drawn) [Compound 41]
COc1ccc(CC2NC(=O)C(C(C)C)NC(=O)C(Cc3ccc(O)cc3)NCCOc3ccccc3C=CCNC2=O)cc1 (stereo not drawn) [Compound 60]
CCCC1NC(=O)C(Cc2ccc3ccccc3c2)NC(=O)C(Cc2ccc(O)cc2)NCCOc2ccccc2C=CCNC1=O (stereo not drawn) [Compound 76]
CCCCC1NC(=O)C(Cc2ccc(O)cc2)NCCOc2ccccc2C=CCNC(=O)C(CCC)NC1=O (stereo not drawn) [Compound 77]
CCCC1NC(=O)C(C(C)C)NC(=O)C(Cc2ccc(OC(C)(C)C)cc2)NCCOc2ccccc2CCCNC1=O (stereo not drawn) [Compound 88]
CCCC1NC(=O)C(C(C)C)NC(=O)C(CCc2ccccc2)NCCOc2ccccc2CCCNC1=O (stereo not drawn) [Compound 89]
CCCC1NC(=O)C(C(C)C)NC(=O)C(C(c2ccccc2)c2ccccc2)NCCOc2ccccc2CCCNC1=O (stereo not drawn) [Compound 90]
CCCC1NC(=O)C(CCC)NC(=O)C(Cc2ccc(O)cc2)NCCOc2ccccc2CCCNC1=O (stereo not drawn) [Compound 91]
CCCC1NC(=O)CCNC(=O)C(Cc2ccc(O)cc2)NCCOc2ccccc2CCCNC1=O (stereo not drawn) [Compound 96]
CCCC1NC(=O)C(C2CCCCC2)NC(=O)C(Cc2ccc(O)cc2)NCCOc2ccccc2CCCNC1=O (stereo not drawn) [Compound 97]
CCCC1NC(=O)C(C(C)C)NC(=O)C(Cc2ccc(O)cc2)NCCCNCCNC1=O (stereo not drawn) [Compound 98]
CCCC1NC(=O)C(C(C)C)NC(=O)C(Cc2ccc(O)cc2)NCCN(C)CCNC1=O (stereo not drawn) [Compound 99]

Ki, 0.001 to 0.1 µM:
CCC[C@@H]1NC(=O)[C@@H](C(C)C)NC(=O)[C@@H](Cc2ccccc2)NCCOc2ccccc2/C=C/CNC1=O [Compound 2]
CC(C)C[C@@H]1NC(=O)[C@@H](C(C)C)NC(=O)[C@@H](Cc2ccc(O)cc2)NCCOc2ccccc2/C=C/CNC1=O [Compound 10]
CCC[C@@H]1NC(=O)[C@@H](C(C)C)NC(=O)[C@@H](Cc2cccc(Cl)c2)NCCOc2ccccc2CCCNC1=O [Compound 15]
CCC[C@@H]1NC(=O)[C@@H](C(C)C)NC(=O)[C@@H](Cc2ccc(Cl)cc2)NCCOc2ccccc2CCCNC1=O [Compound 16]
CCC[C@@H]1NC(=O)[C@@H](C(C)C)NC(=O)[C@@H](Cc2ccc(F)cc2)NCCOc2ccccc2CCCNC1=O [Compound 19]
CC(C)C[C@@H]1NC(=O)[C@@H](C(C)C)NC(=O)[C@@H](Cc2ccc3ccccc3c2)NCCOc2ccccc2/C=C/CNC1=O [Compound 21]
CCC[C@@H]1NC(=O)[C@@H](C(C)C)NC(=O)[C@@H](Cc2ccc(OC)cc2)NCCOc2ccccc2CCCNC1=O [Compound 22]
CCC[C@@H]1NC(=O)[C@@H](C(C)C)NC(=O)[C@@H](Cc2cccc3ccccc23)NCCOc2ccccc2CCCNC1=O [Compound 23]
CC(C)[C@H]1NC(=O)[C@@H](Cc2ccc(O)cc2)NCCOc2ccccc2CCCNC(=O)[C@H](CC2CC2)NC1=O [Compound 26]

Ki, 0.1 to 1 µM:
CCCC1NC(=O)C(C)NC(=O)C(Cc2ccc(O)cc2)NCCOc2ccccc2C=CCNC1=O (stereo not drawn) [Compound 5]
CSCCC1NC(=O)C(C(C)C)NC(=O)C(Cc2ccc(O)cc2)NCCOc2ccccc2C=CCNC1=O (stereo not drawn) [Compound 6]
CCCCC1NC(=O)C(C(C)C)NC(=O)C(Cc2ccc(O)cc2)NCCOc2ccccc2C=CCNC1=O (stereo not drawn) [Compound 7]
CC(C)C1NC(=O)C(Cc2ccc(O)cc2)NCCOc2ccccc2C=CCNC(=O)C(C(C)C)NC1=O (stereo not drawn) [Compound 9]
CCC1NC(=O)C(C(C)C)NC(=O)C(Cc2ccc(O)cc2)NCCOc2ccccc2C=CCNC1=O (stereo not drawn) [Compound 12]
CC(C)CC1NC(=O)C(C(C)C)NC(=O)C(Cc2ccccc2)NCCOc2ccccc2CCCNC1=O (stereo not drawn) [Compound 13]
CC(C)C[C@@H]1NC(=O)[C@@H](C(C)C)NC(=O)[C@@H](Cc2ccc3ccccc3c2)NCCOc2ccccc2CCCNC1=O [Compound 14]
CCC[C@@H]1NC(=O)[C@@H](C(C)C)NC(=O)[C@@H](Cc2c[nH]c3ccccc23)NCCOc2ccccc2CCCNC1=O [Compound 17]
CCCC1NC(=O)C(CC)NC(=O)C(Cc2ccc(O)cc2)NCCOc2ccccc2CCCNC1=O (stereo not drawn) [Compound 18]
CC(C)CC1NC(=O)C(C(C)C)NC(=O)C(Cc2ccccc2)NCCOc2ccccc2C=CCNC1=O (stereo not drawn) [Compound 20]
CCCC1NC(=O)C(C(C)C)NC(=O)C(Cc2ccccc2Cl)NCCOc2ccccc2CCCNC1=O (stereo not drawn) [Compound 25]
CCCC1NC(=O)C(C(C)C)NC(=O)C(Cc2cscn2)NCCOc2ccccc2CCCNC1=O (stereo not drawn) [Compound 27]
CCCC1NC(=O)C(C(C)C)NC(=O)C(Cc2cccnc2)NCCOc2ccccc2CCCNC1=O (stereo not drawn) [Compound 28]
CCCC1NC(=O)C(Cc2ccc(O)cc2)NC(=O)C(Cc2ccc(O)cc2)NCCOc2ccccc2C=CCNC1=O (stereo not drawn) [Compound 34]
CC(C)C1NC(=O)C(Cc2ccc(O)cc2)NCCOc2ccccc2C=CCNC(=O)C(c2ccccc2)NC1=O (stereo not drawn) [Compound 52]
CC(C)C1NC(=O)C(Cc2ccc(O)cc2)NCCOc2ccccc2C=CCNC(=O)C(CCCCN)NC1=O (stereo not drawn) [Compound 55]
CC(C)C1NC(=O)C(Cc2ccc(O)cc2)NCCOc2ccccc2C=CCNC(=O)C(CCCN)NC1=O (stereo not drawn) [Compound 56]
CC(C)C1NC(=O)C(Cc2ccc(O)cc2)NCCOc2ccccc2C=CCNC(=O)C(CO)NC1=O (stereo not drawn) [Compound 57]
CC(C)C1NC(=O)C(Cc2ccc(O)cc2)NCCOc2ccccc2C=CCNC(=O)C(Cc2ccc(O)cc2)NC1=O (stereo not drawn) [Compound 58]
CC(C)C1NC(=O)C(Cc2ccc(O)cc2)NCCOc2ccccc2C=CCNC(=O)C(Cc2c[nH]c3ccccc23)NC1=O (stereo not drawn) [Compound 59]
CCCC1NC(=O)C(C(C)C)NC(=O)C(Cc2ccc(O)cc2)NCCOc2cccc(c2)OCCNC1=O (stereo not drawn) [Compound 71]
CC(C)C1NC(=O)C(Cc2ccc(O)cc2)NCCOc2ccccc2C=CCNC(=O)C(Cc2ccc3ccccc3c2)NC1=O (stereo not drawn) [Compound 72]
CCC(C)C1NC(=O)C(C(C)C)NC(=O)C(Cc2ccc(O)cc2)NCCOc2ccccc2C=CCNC1=O (stereo not drawn) [Compound 80]
CCCC1NC(=O)C(C(C)C)NC(=O)C(Cc2ccc(O)cc2)NCCOc2ccccc2C=CCNC1=O (stereo not drawn) [Compound 85]
CCCC1NC(=O)C(C(C)C)NC(=O)C(Cc2ccc(-c3ccccc3)cc2)NCCOc2ccccc2CCCNC1=O (stereo not drawn) [Compound 87]
CCCC1NC(=O)C(C(C)(C)C)NC(=O)C(Cc2ccc(O)cc2)NCCOc2ccccc2CCCNC1=O (stereo not drawn) [Compound 92]
CC(C)C1NC(=O)C(Cc2ccc(O)cc2)NCCOc2ccccc2CCCNC(=O)C(CCN)NC1=O (stereo not drawn) [Compound 109]

Same assay, conditions: [125I]-motilin competition, CHO cell membranes with human motilin receptor; read-out: Binding activity (Ki)

Ki, 0.1 to 1 µM:
CCCC1NC(=O)C(C(C)C)NC(=O)C(Cc2ccc(O)cc2)NCCOc2ccccc2C=CCNC1=O (stereo not drawn) [Compound 1]
